According to patent US20160287540A1, “Increasing Cancer Patient Survival Time by Administration of Dithio-Containing Compounds” (BioNumerik Pharmaceuticals, Inc., priority 2015, published 2016):
“Also recorded” adds a separate entry of the source. Read-outs that look alike come from different tables or passages of the source.

Experiments:
[1] = test system: coupled thioredoxin (TX)/thioredoxin reductase (TXR)/NADPH system; format: biochemical, bovine
Experimental: (§1) Biochemistry 21:6628-6633 (1982).
(§2) Data was then collected and plotted in Microsoft Excel. Error calculations, and graphical representations were performed in Microsoft Excel and Kaleidograph (ver. 3.5). Nonlinear data was graphically rendered using Kaleidograph. ANOVA and other statistical analyses were performed using SAS (ver. 8.2). Unless otherwise noted, significance level was set at 0.05, and error bars represent actual experimental standard deviation.
Table5, below, illustrates that various Formula (I) compounds (i.e., disulfide-containing compounds) of the present invention can serve as alternate substrate inhibitors for the coupled thioredoxin (TX)/thioredoxin reductase (TXR)/NADPH system as measured by the oxidation of NADPH. In Table5, the Formula (I) compounds were utilized at a concentration of 0.5 mM.

[2] = biological target: T1, glutathione reductase (GR) (Homo sapiens, UniProt P00390); experiment: NADPH oxidation by glutathione reductase, without or with GSH; format: biochemical
T1 sequence (P00390 44-522): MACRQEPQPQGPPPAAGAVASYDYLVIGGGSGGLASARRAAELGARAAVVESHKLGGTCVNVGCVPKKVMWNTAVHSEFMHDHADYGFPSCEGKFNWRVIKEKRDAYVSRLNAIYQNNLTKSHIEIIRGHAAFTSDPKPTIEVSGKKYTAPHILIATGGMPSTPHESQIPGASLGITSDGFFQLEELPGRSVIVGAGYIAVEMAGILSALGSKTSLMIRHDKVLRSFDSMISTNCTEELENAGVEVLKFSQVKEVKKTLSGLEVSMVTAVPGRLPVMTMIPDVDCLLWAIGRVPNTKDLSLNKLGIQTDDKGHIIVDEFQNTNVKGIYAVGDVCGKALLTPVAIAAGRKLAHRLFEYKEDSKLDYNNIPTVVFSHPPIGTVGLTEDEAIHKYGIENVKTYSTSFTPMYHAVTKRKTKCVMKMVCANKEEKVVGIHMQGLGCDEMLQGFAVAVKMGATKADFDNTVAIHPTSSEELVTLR
Experimental: (§3) Table 4, below, illustrates that various Formula (I) compounds (i.e., dithiol-containing compounds) may act as alternative substrate inhibitors for the coupled GRX/GSH/GR system as measured by NADPH oxidation. The Formula (I) compound was utilized at a concentration of 0.5 mM.

[3] = biological target: T2, thioredoxin reductase (TXR) (Bos taurus, UniProt O62768); experiment: NADPH oxidation by thioredoxin reductase only; format: biochemical; settings: listed as Tavocept™
T2 sequence (O62768 1-499): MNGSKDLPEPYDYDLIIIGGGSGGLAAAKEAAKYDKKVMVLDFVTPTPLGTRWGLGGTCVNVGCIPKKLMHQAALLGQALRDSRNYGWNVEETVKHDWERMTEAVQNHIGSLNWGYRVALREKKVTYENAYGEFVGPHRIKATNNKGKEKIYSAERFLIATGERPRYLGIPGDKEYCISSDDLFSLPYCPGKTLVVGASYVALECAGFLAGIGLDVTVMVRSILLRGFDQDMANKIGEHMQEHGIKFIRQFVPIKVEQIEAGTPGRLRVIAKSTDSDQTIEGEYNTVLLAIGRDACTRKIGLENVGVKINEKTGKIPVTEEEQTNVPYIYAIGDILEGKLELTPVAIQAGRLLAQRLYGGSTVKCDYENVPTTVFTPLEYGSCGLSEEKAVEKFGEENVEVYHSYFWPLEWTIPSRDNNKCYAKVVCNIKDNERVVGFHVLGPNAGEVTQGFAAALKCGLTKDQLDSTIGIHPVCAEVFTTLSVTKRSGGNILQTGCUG
Experimental: as §1, §2

[4] = biological target: T3, coupled glutaredoxin (GRX)/glutathione (GSH)/glutathione reductase (GR) system (Homo sapiens, UniProt P35754); experiment: NADPH oxidation by coupled GRX/GSH/GR system; format: biochemical; settings: in the presence of reduced glutathione and glutathione reductase
T3 sequence (P35754 1-106): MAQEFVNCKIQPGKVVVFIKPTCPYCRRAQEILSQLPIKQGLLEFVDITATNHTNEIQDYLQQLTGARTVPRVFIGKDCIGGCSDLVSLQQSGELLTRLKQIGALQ
Experimental: as §3

[5] = test system: patients with advanced, Stage IIIB/IV, non-small cell lung carcinoma (NSCLC), including the adenocarcinoma sub-type; experiment: U.S. Phase II NSCLC Clinical Trial (dose-dense docetaxel/cisplatin with or without Tavocept™); format: in vivo, human; settings: Tavocept™ arm vs non-Tavocept™ arm
From the text: As utilized herein, the term “clinical trial” or “trial”, refers to: • (i) the Japan Phase III Clinical Trial disclosed in the present invention which was utilized to show the ability of Tavocept™ (also referred to in the literature as disodium 2,2′-dithio-bis-ethane sulfonate, dimesna, or BNP7787) to prevent and/or reduce peripheral neuropathy induced by paclitaxel/cisplatin combination therapy. The incidence and severity of adverse reactions, time to their onset, etc. and the like, were compared between patients treated with Tavocept™ and those given a placebo using Quality of Life (QOL) questionnaires (i.e., Peripheral Neuropathy Questionnaire (PNQ©) and CIPN-20)) and the National Cancer Institute-Common Toxicity Criteria (NCI-CTC). The effects of Tavocept™ on the Quality of Life (QOL) of patients under anticancer treatment were also evaluated using the QOL questionnaire, EORTC QLQ-C30. Whether or not Tavocept™ would affect the efficacy of paclitaxel/cisplatin combination therapy was also evaluated based on the response rate, aggravation-free survival period, and total survival period. […] Whether or not Tavocept™ would affect the efficacy of the dose-dense docetaxel/cisplatin combination therapy was also evaluated based on the response rate, aggravation-free survival period, and total survival period. […]

[6] = test system: mammalian thioredoxin reductase (TXR); settings: cited from earlier work
[7] = biological target: T1, glutathione reductase (GR); settings: cited from earlier work
[8] = test system: whole cells (reduction of TX/TXR and GRX substrates); experiment: Whole cell mediated disulfide reduction; format: cell-based; settings: mesna in combination with cisplatin
[9] = test system: non-small cell lung carcinoma (NSCLC) cell lines; experiment: Cytotoxicity in NSCLC cell lines; format: cell-based, human
[10] = test system: ovarian cancer cell lines; experiment: Cytotoxicity in ovarian cancer cell lines; format: cell-based, human; settings: mesna (100 μM) in combination with oxaliplatin vs oxaliplatin alone controls
brain cancer cells = experiment: Cytotoxicity in brain cancer cells; format: cell-based, human; settings: oxaliplatin and mesna; observable but not statistically significant

SMILES	inhibition of TXR (in words) ([6]; literature studies)	inhibition of GR (in words) ([7]; literature studies)	also measured
NC(CSSCCS(=O)(=O)O)C(=O)O (stereo not drawn) [BNP7766]	–	–	substrate activity / NADPH oxidation by TXR in the presence of TX (in words) [1]: substrates
NC(CCSSCCS(=O)(=O)O)C(=O)O (stereo not drawn) [BNP7768]	–	–	substrate activity / NADPH oxidation by TXR in the presence of TX (in words) [1]: substrates
N[C@@H](CCC(=O)N[C@@H](CSSCCS(=O)(=O)O)C(=O)NCC(=O)O)C(=O)O [BNP7772]	–	–	substrate activity / NADPH oxidation by TXR in the presence of TX (in words) [1]: substrates; substrate activity for glutathione reductase (in words) [2]: functions as an alternative substrate inhibitor
N[C@@H](CSSCCS(=O)(=O)O)C(=O)NCC(=O)O [BNP7776]	–	–	substrate activity / NADPH oxidation by TXR in the presence of TX (in words) [1]: substrates
O=S(=O)([O-])CCSSCCS(=O)(=O)[O-].[Na+].[Na+] [BNP7787, disodium 2,2′-dithio-bis-ethane sulfonate]	–	–	NADPH oxidation / substrate activity with thioredoxin reductase alone, absence of TX (in words) [3]: indistinguishable from background; also recorded: not thioredoxin reductase alone; substrate activity for glutathione reductase (in words) [2]: not a substrate for glutathione reductase; activity with glutaredoxin (in words) [4]: substrate-like activity; increase in patient (median) survival, adenocarcinoma ([5]; listed as Tavocept): ~6.5 month; increase in patient (median) survival, adenocarcinoma ([5]; listed as Tavocept™): 6.54 month
CS(=O)(=O)OCCCCOS(C)(=O)=O [busulfan]	irreversibly inhibited TXR in a concentration- and time-dependent manner	not GR	–
N.N.O=C([O-])C1(C(=O)[O-])CCC1.[Pt+2] [carboplatin]	could not inhibit either TXR or GR	could not inhibit either TXR or GR	–
O=NN(CCCl)C(=O)NCCCl [carmustine]	can inhibit both GR and TXR	can inhibit both GR and TXR	–
O=C(O)CCCc1ccc(N(CCCl)CCCl)cc1 [chlorambucil]	irreversibly inhibited TXR in a concentration- and time-dependent manner	not GR	–
N.N.[Cl][Pt][Cl] [cisplatin, cis-diamminedichloroplatinum]	irreversibly inhibited TXR	not GR	–
O=P1(N(CCCl)CCCl)NCCCO1 (stereo not drawn) [cyclophosphamide]	irreversibly inhibited TXR in a concentration- and time-dependent manner	not GR	–
O=P1(NCCCl)OCCCN1CCCl (stereo not drawn) [ifosfamide]	inhibited TXR	–	–
N[C@@H](Cc1ccc(N(CCCl)CCCl)cc1)C(=O)O [melphalan]	irreversibly inhibited TXR in a concentration- and time-dependent manner	not GR	–
O=S(=O)(O)CCS [mesna, sodium-2-mercaptoethane sulfonate]	–	–	reduction of α-lipoic acid (TX/TXR substrate) or hydroxyethyldisulfide (GRX substrate) by whole cells [8]: enhanced the reduction; cytotoxic effect of oxaliplatin ([9]; mesna (100 μM) in combination with oxaliplatin vs oxaliplatin alone controls, NSCLC): markedly enhanced the cytotoxic effect; cytotoxic effect of paclitaxel ([9]; mesna (100 μM) in combination with paclitaxel vs paclitaxel alone controls): enhanced the cytotoxic effect; cytotoxic effect of oxaliplatin [10]: markedly enhanced the cytotoxic effect; oxaliplatin cytotoxicity (brain cancer cells): lesser increase in oxaliplatin cytotoxicity
N.N.O.[Cl][Pt+] [monohydrated complex]	irreversibly inhibited TXR	not GR	–
O=C1[O][Pt]2([NH][C@@H]3CCCC[C@H]3[NH]2)[O]C1=O [oxaliplatin]	–	–	inhibition of TXR (in words) [6]: irreversibly inhibited TXR; inhibition of GR (in words) [7]: not GR
N.N.[Cl][Pt+2][Cl] [transplatin]	irreversibly inhibited TXR	not GR	–
